Test results taken from patent US5244886A, “11β-phenyl-14βH steroids” (Schering Aktiengesellschaft, priority 1988, dated 1993).

Test system: Antiglucocorticoid effectiveness
Experiment: Antiglucocorticoid effectiveness in % of RU 486
Conditions: RU 486 effectiveness = 100%
Source text: Antiglucocorticoid effectiveness of compounds A to G;
the effectiveness is indicated in % of th

In order of rising “Antiglucocorticoid effectiveness (in % of RU 486)” value:
1. COc1ccc2c(c1)C[C@]13CCC(=O)C=C1CC[C@@H]1[C@@H]3[C@@H]2C[C@@]2(C)[C@@H]1CC[C@]2(O)CCCO [C, 17-hydroxy-17beta-(3-hydroxypropyl)-11beta,19-(4-methoxy-o-phenylene)-14beta-androst-4-en-3-one]  0%
2. C[C@]12C[C@@H]3c4ccc(-c5cccnc5)cc4C[C@]45CCC(=O)C=C4CC[C@H]([C@H]35)[C@H]1CC[C@]2(O)CCCO [D, 17-hydroxy-17beta-(3-hydroxypropyl)-11beta,19-(4-(3-pyridyl)-o-phenylene]-14beta-androst-4-en-3-one]  0%
3. CC#C[C@@]1(O)CC[C@@H]2[C@@H]3CCC4=CC(=O)CCC4=C3[C@@H](c3ccc(C(C)=O)cc3)C[C@@]21C [A, 11beta-(4-acetylphenyl)-17alpha-hydroxy-17-(prop-1-inyl)-14beta-estra-4,9-dien-3-one]  1%
4. C#CC[C@@]1(O)CC[C@@H]2[C@@H]3CCC4=CC(=O)CCC4=C3[C@@H](c3ccc(C(C)=O)cc3)C[C@@]21C [B, 11beta-(4-acetylphenyl)-17alpha-hydroxy-17-(prop-2-inyl)-14beta-estra-4,9-dien-3-one]  1%
5. C=Cc1ccc2c(c1)C[C@]13CCC(=O)C=C1CC[C@@H]1[C@@H]3[C@@H]2C[C@@]2(C)[C@@H]1CC[C@]2(O)CCCO [E, 17-hydroxy-17beta-(3-hydroxypropyl)-11beta,19-(4-vinyl-o-phenylene)-14beta-androst-4-en-3-one]  1%
6. CN(C)c1ccc([C@H]2C[C@@]3(C)[C@H](CC[C@]3(O)CCCO)[C@@H]3CCC4=CC(=O)CCC4=C32)cc1 [F, 11beta-(4-dimethylaminophenyl)-17alpha-hydroxy-17-(3-hydroxypropyl)-14beta-estra-4,9-dien-3-one, reference compound]  2%

Test system: mammary gland (tubulo-alveolar gland end pieces)
Experiment: Antiproliferative potency of progesterone antagonists on the mammary gland, bioassay in ovariectomized rats (whole mount, inguinal mammary gland)
Assay type: in vivo, rat
Conditions: 3 days, estrone 10 micrograms + progesterone 3 mg, antagonist 1 mg/animal/day, relative to G = 100%
Experimental: The antiproliterative potency of progesterone antagonists on the mammary gland was determined in a bioassay. For this purpose, ovariectomized rats were substituted for 3 days with estrone (10 micrograms) and progesterone (3 mg) and another group at the same time was treated with the following progesterone antagonists (1 mg/animal/day):
The entire inguinal mammary gland was dissected by performance of the "whole mount" technique (Lyons and Johnson, 1952). Of six animals, the number of tubulo-alveolar gland end pieces is determined by 40 times magnification.
The antiproliterative potency is expressed in percent of the inhibition of the tubulo-alveolar end pieces corresponding to the following formula:
(estrone (E)+progesterone (P))-(E+P+G)=100% of treated animals
(E+P)-(test compound H or I)=X%

In order of falling “% inhibition of the tubulo-alveolar end pieces” value:
1. CC#C[C@]1(O)CC[C@H]2[C@@H]3CCC4=CC(=O)CCC4=C3[C@@H](c3ccc(C(C)=O)cc3)C[C@@]21C [G, 11beta-(4-acetylphenyl)-17beta-hydroxy-17alpha-(1-propinyl)-4,9-estradien-3-one]  100%
2. C[C@]12C[C@H](c3ccc(-c4cccnc4)cc3)C3=C4CCC(=O)C=C4CC[C@H]3[C@H]1CC[C@]2(O)CCCO [H, 11beta-[4-(3-pyridyl)phenyl]-17alpha-hydroxy-17-(3-hydroxypropyl)-14beta-estra-4,9-dien-3-one]  92%
3. CN(C)c1ccc([C@H]2C[C@@]3(C)[C@H](CC[C@]34CCCO4)[C@@H]3CCC4=CC(=O)CCC4=C32)cc1 [I, 11beta-(4-dimethylaminophenyl)-4,5-dihydro-spiro[14beta-estra-4,9-diene-17alpha,2'(3'H)-furan]-3-one]  13%
